# Like-named read-outs stand apart in the source and are kept apart here.
# How the values were obtained:
# isolated rat hearts = assay: Cardiovascular study: arrhythmias in isolated rat hearts (Langendorff infusion), ischaemia-reinfusion; details: for inhibition at 0.1 µM: Rattus norvegicus, n=6, preliminary
# Method: Example F: CARDIOVASCULAR STUDY
# The compounds are tested at a concentration of 0.1 μM in a solution of DMSO in Krebs buffer (0.01% v/v) on arrhythmias. 6 isolated rat hearts were used for the test compound and 6 for the control. An infusion by the Langendorff method is performed (Rees S. A. and Curtis M.J.J. Card. Pharmacol. 1995, 26: 280-288).
# [1] = tested on: Na^+ -independent Cl^- /HCO3^- exchanger; assay: Activity of the Na^+ -independent Cl^- /HCO3^- exchanger in ventricular cardiomyocytes isolated from rat heart (acetate method, carboxy-SNARF-1 intracellular pH); type: cell-based
# Method: Example A: MEASUREMENT OF THE ACTIVITY OF THE Na^+ -INDEPENDENT Cl^- /HCO3^- EXCHANGER IN VENTRICULAR CARDIOMYOCYTES ISOLATED FROM RAT HEART
# The study is performed on ventricular cardiomyocytes isolated from rat heart by enzymatic dissociation. The intracellular pH of a single cell is measured by the fluorescent label carboxy-SNARF-1 whose fluorescence depends on its state of protonation (Buckler K. J. et al. Pflugers Archiv, 1990, 417: 234-239). The cells are "charged" beforehand with SNARF-1-AM (esterified and permeating form of the label) and the intracellular fluorescence of SNARF is monitored using an inverted microscope equipped with epifluorescence. The measurements are converted into pH using a calibration file.
# The activity of the Na^+ -independent Cl^- /HCO3^- exchanger is studied after activation by induction of an alkaline charge of the cells by the acetate method (Roos A et al. Physiol. Rev., 1981, 61: 296-434). […]
# The compounds according to the invention are used at concentrations of 10^-11 to 10^-5 M and their IC50 (50% inhibitory concentration) is calculated for each ion transporter. In parallel, the effects of the molecules on the intracellular intrinsic buffer power and the intracellular resting pH are determined.
compound,measurement,setting,value
"Cc1cc(C)c(NC(=O)C2(C)CCc3c(C)c(O)c(C)c(C)c3O2)cc1C (centres unmarked) [Example 14, N-(2,4,5-trimethylphenyl)-(6-hydroxy-3,4-dihydro-2,5,7,8-tetramethyl-2H[1]-benzopyran-2-yl)carboxamide]",activity on the cardiovascular system,"isolated rat hearts; 0.1 μM, isolated rat heart",possesses cardioprotective activity
same,inhibition at 0.1 µM,"isolated rat hearts; in comparison with control hearts, read-out: reduction of the incidence of ventricular fibrillation observed during the ischaemia",50%
same,inhibition at 0.1 µM,isolated rat hearts; read-out: reduction of the incidence of ventricular fibrillation observed during reinfusion,50%
same,selectivity of inhibition of the Na^+ -independent Cl^- /HCO3^- exchanger,[1]; Na^+ /H^+ exchange and Na^+ /HCO3^- cotransport also studied (ammonium method),selective inhibitor
same,IC50,"[1]; activation by alkaline charge (acetate method), 10^-11 to 10^-5 M, read-out: IC50 (50% inhibitory concentration), Na^+ -independent Cl^- /HCO3^- exchanger",~100 pM
